Data from publication PMC3747139 (PLoS ONE, 2013).
Read-outs that look alike come from different tables or passages of the source. Marks after values point to notes of the source that are not given here.

Legend:
HQF DNA [d(T2AG3)4] = test: SYBR Green melting study with HQF DNA; assay type: binding, human; conditions: melting temperature of HQF DNA (5 µM) in presence of 1 µM ligand
Method: When quadruplex DNA melts to form ssDNA structure, SG fluorescence intensity gradually reduces as SG has no binding to ssDNA. Each time, 5 µM of HQF DNA [d(T2AG3)4)], 5 µM of dsDNA (prepared by mixing equal concentration of poly-dA-dT and poly-dT-dA), 5 µM ssDNA ( poly dT alone) and 1 µM of each ligand was incubated at 4°C for 16 h, and used for melting studies. […] Affinity, stoichiometry and thermodynamic parameters for quadruplex-ligand complex were studied with 60 µM of ligand and 10 µM of HQF DNA using Microcal VP-ITC (Northampton, MA, USA). Ligand addition to G-quadruplex DNA was made every 180 seconds. Titration experiments were performed thrice and blank correction was made each time to minimize error.

[1] = Cell count assay (trypan blue); assay type: cell-based; parameters: concentration or dose not given beside the values; conditions: human; for viability at 24 h: read-out: Number of viable cells after 24 h of ligand treatment; for viability at 48 h: read-out: Number of viable cells after 48 h of ligand treatment
Method: (§1) Normal and tumor cell lines were seeded at 20000–40000 cells/cm^2 with 0.2 mL/cm^2 media and incubated for 48 h at 37°C, 6% CO2, 95% relative humidity. […] After 24 h and 48 h of incubation, cells were washed with 300 µl PBS or 0.02% EDTA, trypsinized, followed by harvesting at 37°C. 200 µl cell suspension was transferred into 1.5 ml microcentrifuge tube. To the cell suspension, 300 µl PBS followed by 500 µl of 0.4% trypan blue solution was added. To get the homogenised solution, the microcentrifuge tube was gently tapped for 5 min, 20 µl of cell suspension was loaded in to a chamber of the haemocytometer.

B16F10 = test: Cell count assay (trypan blue); assay type: cell-based, human; conditions: for Number of viable cells after 24 h of ligand treatment: B16F10, 24 h; for Number of viable cells after 48 h of ligand treatment: B16F10, 48 h
Method: as §1

MCF-7 = test: Cell count assay (trypan blue); assay type: cell-based, human; conditions: for Number of viable cells after 24 h of ligand treatment: MCF-7, 24 h; for Number of viable cells after 48 h of ligand treatment: MCF-7, 48 h;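 for Number of viable cells after 48 h of ligand treatment: each ligand tested at its own IC50 concentration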
Method: as §1

A549 = test: Cell count assay (trypan blue); assay type: cell-based, human; conditions: for Number of viable cells after 24 h of ligand treatment: A549, 24 h; for Number of viable cells after 48 h of ligand treatment: A549, 48 h;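 for Number of viable cells after 24 h of ligand treatment: each ligand tested at its own IC50 concentration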
Method: as §1

[2] = CRL-2115 cells (normal cell line), CRL-2115, 24 h
[3] = CRL-2115 cells (normal cell line), CRL-2115, 48 h
[4] = CRL-2120 cells (normal cell line), CRL-2120, 24 h
[5] = CRL-2120 cells (normal cell line), CRL-2120, 48 h
[6] = NCM-460 cells (normal cell line), NCM-460, 24 h
[7] = NCM-460 cells (normal cell line), NCM-460, 48 h

c1ccc(Cn2nnc(-c3ccccc3)c2-c2ccccc2)cc1 [Ligand L4, 1-Benzyl-4,5-diphenyl-1H-1,2,3-triazole]
Tm (HQF DNA [d(T2AG3)4]): 32 ^o C
viability at 24 h [1, 2]: 80 to 90%
viability at 48 h [1, 3]: 50 to 60%
viability at 24 h [1, 4]: 80 to 90%
viability at 48 h [1, 5]: 80 to 90%
viability at 24 h [1, 6]: 80 to 90%
viability at 48 h [1, 7]: 50 to 60%
Number of viable cells after 24 h of ligand treatment (B16F10): ++/++ (Viable cells in the range of 50%–60%)
Number of viable cells after 48 h of ligand treatment (B16F10): ++/++ (Viable cells in the range of 50%–60%)
Number of viable cells after 24 h of ligand treatment (MCF-7): ++/++ (Viable cells in the range of 50%–60%)
Number of viable cells after 48 h of ligand treatment (MCF-7): ++/++ (Viable cells in the range of 50%–60%)
Number of viable cells after 24 h of ligand treatment (A549): + (Viable cells in the range of 80%–90%)
Number of viable cells after 48 h of ligand treatment (A549): ++ (Viable cells in the range of 50%–60%)

CCCCc1nnn(Cc2ccccc2)c1/C=C/c1ccccc1 [Ligand L5, (E)-1-Benzyl-4-butyl-5-styryl-1H-1,2,3-triazole]
Tm (HQF DNA [d(T2AG3)4]): 33 ^o C
viability at 24 h [1, 2]: 80 to 90%
viability at 48 h [1, 3]: 50 to 60%
viability at 24 h [1, 4]: 80 to 90%
viability at 48 h [1, 5]: 50 to 60%
viability at 24 h [1, 6]: 80 to 90%
viability at 48 h [1, 7]: 50 to 60%
Number of viable cells after 24 h of ligand treatment (B16F10): ++/++ (Viable cells in the range of 50%–60%)
Number of viable cells after 48 h of ligand treatment (B16F10): ++/++ (Viable cells in the range of 50%–60%)
Number of viable cells after 24 h of ligand treatment (MCF-7): ++/++ (Viable cells in the range of 50%–60%)
Number of viable cells after 48 h of ligand treatment (MCF-7): ++/++ (Viable cells in the range of 50%–60%)
Number of viable cells after 24 h of ligand treatment (A549): + (Viable cells in the range of 80%–90%)
Number of viable cells after 48 h of ligand treatment (A549): ++ (Viable cells in the range of 50%–60%)

CCCCc1nnn(Cc2ccccc2)c1-c1cccc(O)c1 [Ligand L6, 3-(3-Benzyl-5-butyl-3H-1,2,3-triazol-4-yl)phenol]
Tm (HQF DNA [d(T2AG3)4]): 33 ^o C
viability at 24 h [1, 2]: 80 to 90%
viability at 48 h [1, 3]: 50 to 60%
viability at 24 h [1, 4]: 80 to 90%
viability at 48 h [1, 5]: 50 to 60%
viability at 24 h [1, 6]: 50 to 60%
viability at 48 h [1, 7]: 50 to 60%
Number of viable cells after 24 h of ligand treatment (B16F10): + (Viable cells in the range of 80%–90%)
Number of viable cells after 48 h of ligand treatment (B16F10): ++ (Viable cells in the range of 50%–60%)
Number of viable cells after 24 h of ligand treatment (MCF-7): + (Viable cells in the range of 80%–90%)
Number of viable cells after 48 h of ligand treatment (MCF-7): ++ (Viable cells in the range of 50%–60%)
Number of viable cells after 24 h of ligand treatment (A549): ++/++ (Viable cells in the range of 50%–60%)
Number of viable cells after 48 h of ligand treatment (A549): ++/++ (Viable cells in the range of 50%–60%)

c1ccc(-c2nnn(CC3CCCCO3)c2-c2ccccc2)cc1 (stereo not shown) [Ligand L7, 4,5-Diphenyl-1-((tetrahydro-2H-pyran-2-yl)methyl)-1H-1,2,3-triazole]
Tm (HQF DNA [d(T2AG3)4]): 29 ^o C
viability at 24 h [1, 2]: 80 to 90%
viability at 48 h [1, 3]: 80 to 90%
viability at 24 h [1, 4]: 80 to 90%
viability at 48 h [1, 5]: 50 to 60%
viability at 24 h [1, 6]: 80 to 90%
viability at 48 h [1, 7]: 50 to 60%
Number of viable cells after 24 h of ligand treatment (B16F10): + (Viable cells in the range of 80%–90%)
Number of viable cells after 48 h of ligand treatment (B16F10): ++ (Viable cells in the range of 50%–60%)
Number of viable cells after 24 h of ligand treatment (MCF-7): + (Viable cells in the range of 80%–90%)
Number of viable cells after 48 h of ligand treatment (MCF-7): ++ (Viable cells in the range of 50%–60%)
Number of viable cells after 24 h of ligand treatment (A549): +/+ (Viable cells in the range of 80%–90%)
Number of viable cells after 48 h of ligand treatment (A549): +/+ (Viable cells in the range of 80%–90%)

Oc1cccc(-c2c(-c3ccccc3)nnn2CC2CCCCO2)c1 (stereo not shown) [Ligand L8]
Tm (HQF DNA [d(T2AG3)4]): 27 ^o C

CCOC(=O)c1nnn(Cc2ccccc2)c1-c1ccccc1 [Ligand L9, Ethyl 1-benzyl-5-phenyl-1H-1,2,3-triazole-4-carboxylate]
Tm (HQF DNA [d(T2AG3)4]): 29 ^o C
viability at 24 h [1, 2]: 80 to 90%
viability at 48 h [1, 3]: 50 to 60%
viability at 24 h [1, 4]: 80 to 90%
viability at 48 h [1, 5]: 80 to 90%
viability at 24 h [1, 6]: 80 to 90%
viability at 48 h [1, 7]: 80 to 90%
Number of viable cells after 24 h of ligand treatment (B16F10): + (Viable cells in the range of 80%–90%)
Number of viable cells after 48 h of ligand treatment (B16F10): ++ (Viable cells in the range of 50%–60%)
Number of viable cells after 24 h of ligand treatment (MCF-7): +/+ (Viable cells in the range of 80%–90%)
Number of viable cells after 48 h of ligand treatment (MCF-7): +/+ (Viable cells in the range of 80%–90%)
Number of viable cells after 24 h of ligand treatment (A549): + (Viable cells in the range of 80%–90%)
Number of viable cells after 48 h of ligand treatment (A549): ++ (Viable cells in the range of 50%–60%)

CCOC(=O)c1nnn(Cc2ccccc2)c1/C=C/c1ccccc1 [Ligand L10, (E)-Ethyl 1-benzyl-5-styryl-1H-1,2,3-triazole-4-carboxylate]
Tm (HQF DNA [d(T2AG3)4]): 33 ^o C
viability at 24 h [1, 2]: 80 to 90%
viability at 48 h [1, 3]: 80 to 90%
viability at 24 h [1, 4]: 80 to 90%
viability at 48 h [1, 5]: 80 to 90%
viability at 24 h [1, 6]: 80 to 90%
viability at 48 h [1, 7]: 50 to 60%
Number of viable cells after 24 h of ligand treatment (B16F10): + (Viable cells in the range of 80%–90%)
Number of viable cells after 48 h of ligand treatment (B16F10): ++ (Viable cells in the range of 50%–60%)
Number of viable cells after 24 h of ligand treatment (MCF-7): + (Viable cells in the range of 80%–90%)
Number of viable cells after 48 h of ligand treatment (MCF-7): ++ (Viable cells in the range of 50%–60%)
Number of viable cells after 24 h of ligand treatment (A549): +/+ (Viable cells in the range of 80%–90%)
Number of viable cells after 48 h of ligand treatment (A549): +/+ (Viable cells in the range of 80%–90%)

CCOC(=O)c1nnn(Cc2ccccc2)c1-c1cccc(O)c1 [Ligand L11, Ethyl 1-benzyl-5-(3-hydroxyphenyl)-1H-1,2,3-triazole-4-carboxylate]
Tm (HQF DNA [d(T2AG3)4]): 28 ^o C
viability at 24 h [1, 2]: 80 to 90%
viability at 48 h [1, 3]: 80 to 90%
viability at 24 h [1, 4]: 80 to 90%
viability at 48 h [1, 5]: 80 to 90%
viability at 24 h [1, 6]: 80 to 90%
viability at 48 h [1, 7]: 80 to 90%
Number of viable cells after 24 h of ligand treatment (B16F10): + (Viable cells in the range of 80%–90%)
Number of viable cells after 48 h of ligand treatment (B16F10): ++ (Viable cells in the range of 50%–60%)
Number of viable cells after 24 h of ligand treatment (MCF-7): + (Viable cells in the range of 80%–90%)
Number of viable cells after 48 h of ligand treatment (MCF-7): ++ (Viable cells in the range of 50%–60%)
Number of viable cells after 24 h of ligand treatment (A549): + (Viable cells in the range of 80%–90%)
Number of viable cells after 48 h of ligand treatment (A549): ++ (Viable cells in the range of 50%–60%)

C(=C\c1c(-c2ccccc2)nnn1CC1CCCCO1)/c1ccccc1 (stereo not shown) [Ligand L12, (E)-4-Phenyl-5-styryl-1-((tetrahydro-2H-pyran-2-yl)methyl)-1H-1,2,3-triazole]
Tm (HQF DNA [d(T2AG3)4]): 31 ^o C
viability at 24 h [1, 2]: 80 to 90%
viability at 48 h [1, 3]: 80 to 90%
viability at 24 h [1, 4]: 80 to 90%
viability at 48 h [1, 5]: 80 to 90%
viability at 24 h [1, 6]: 80 to 90%
viability at 48 h [1, 7]: 50 to 60%
Number of viable cells after 24 h of ligand treatment (B16F10): + (Viable cells in the range of 80%–90%)
Number of viable cells after 48 h of ligand treatment (B16F10): ++ (Viable cells in the range of 50%–60%)
Number of viable cells after 24 h of ligand treatment (MCF-7): + (Viable cells in the range of 80%–90%)
Number of viable cells after 48 h of ligand treatment (MCF-7): ++ (Viable cells in the range of 50%–60%)
Number of viable cells after 24 h of ligand treatment (A549): +/+ (Viable cells in the range of 80%–90%)
Number of viable cells after 48 h of ligand treatment (A549): +/+ (Viable cells in the range of 80%–90%)

Oc1cccc(-c2c(-c3ccccc3)nnn2CC2CCCCO2)c1 (stereo not shown) [Ligand L13, 3-(5-Phenyl-3-((tetrahydro-2H-pyran-2-yl)methyl)-3H-1,2,3-triazol-4-yl)phenol]
Tm (HQF DNA [d(T2AG3)4]): 33 ^o C
viability at 24 h [1, 2]: 80 to 90%
viability at 48 h [1, 3]: 80 to 90%
viability at 24 h [1, 4]: 80 to 90%
viability at 48 h [1, 5]: 80 to 90%
viability at 24 h [1, 6]: 80 to 90%
viability at 48 h [1, 7]: 80 to 90%
Number of viable cells after 24 h of ligand treatment (B16F10): + (Viable cells in the range of 80%–90%)
Number of viable cells after 48 h of ligand treatment (B16F10): ++ (Viable cells in the range of 50%–60%)
Number of viable cells after 24 h of ligand treatment (MCF-7): +/+ (Viable cells in the range of 80%–90%)
Number of viable cells after 48 h of ligand treatment (MCF-7): +/+ (Viable cells in the range of 80%–90%)
Number of viable cells after 24 h of ligand treatment (A549): +/+ (Viable cells in the range of 80%–90%)
Number of viable cells after 48 h of ligand treatment (A549): +/+ (Viable cells in the range of 80%–90%)
